Each compound was assayed on human embryonic stem cell derived neural stem cells (NSCs) (assay: Neurogenesis assay: neural stem cell proliferation assay). Conditions: 96 h, compound concentration at which 150% activity of control (100%) is reached, increase in cells based on ATP levels (CellTiterGlo), 4 days incubation, dose response 8 μM to 8 nM.
Method: Neural Stem Cell Proliferation Assay
Neurogenic properties of small molecules are determined based on the proliferation of human embryonic stem cell derived neural stem cells (NSCs) which were derived via a dual smad inhibition as previously described (Chambers, S. M., et al., Highly efficient neural conversion of human ES and iPS cells by dual inhibition of SMAD signaling, Nature biotechnology, 2009 27(3): p. 275-80.).
Compounds response is measured by the increase in cells based on ATP levels (Promega:CellTiterGlo®) after an incubation period of 4 days. NSCs are thawed and expanded over 3 passages. On the 14th day, NSCs are seeded in Polyornithin/Laminin coated 384 well plates at a cell density of 21,000 cells/cm^2 in a media volume of 38 μl.
4 hours after cell seeding, compound solutions are added at a volume of 2 μl. Stock solutions of the compounds (water, 5% DMSO) are diluted to obtain a dose response (11 points, dilution factor is 2), ranging from 8 μM to 8 nM. Controls are run to consistently determine the neurogenic properties of the cells:
Negative (neutral) control is cell culture Media (final DMSO concentration: 0.25%).
1. cell culture Media+100 ng/ml FGF2 (final DMSO concentration: 0.1%)
2. cell culture Media+20 ng/ml EGF (final DMSO concentration: 0.1%)
3. cell culture Media+100 ng/ml Wnt3a (final DMSO concentration: 0.1%)
After 4 days incubation at 37° C., 5% CO2, the amount of ATP per well is quantified. The ATP concentration is proportional to the cell number. ATP is quantified by using the Promega CellTiterGlo® kit. The CellTiterGlo® reagents contain a cell lysis buffer, a thermo stable luciferase (UltraGlo™ recombinant luciferase), magnesium and luciferin. Luciferin reacts with ATP producing oxyluciferin, AMP and light. The luminescence signal is proportional to the ATP content.
The value of negative (neutral) control is determined for each assay plate by taking the average of 16 negative control wells. The neurogenic compound response is calculated for each compound as (compound/Negative Control)*100. The values of EC150 from the dose response curve are determined for each test compound. The EC150 is the compound concentration at which 150% activity of control (100%) is reached.
Work on `COc1cc(N2CCC(Cc3ccccc3Cl)C2=O)ccc1-c1cn[nH]c1` (centres unmarked) [Example 37, 3-[(2-Chlorophenyl)methyl]-1-[3-methoxy-4-(1H-pyrazol-4-yl)phenyl]pyrrolidin-2-one] yielded an EC (150% of control) of 1.13 µM.
`COc1cc(N2CCC(c3cccc(Cl)c3)C2=O)ccc1-c1cnco1` (centres unmarked) [Example 38, 3-(3-Chlorophenyl)-1-[3-methoxy-4-(1,3-oxazol-5-yl)phenyl]pyrrolidin-2-one] gave an EC (150% of control) of 1.35 µM.
With `COc1cccc(CN2CCN(c3ccc(-c4cn[nH]c4)cc3OC)C2=O)c1` [Example 39, 1-[(3-Methoxyphenyl)methyl]-3-[2-methoxy-4-(1H-pyrazol-4-yl)phenyl]imidazolidin-2-one] the EC (150% of control) was 0.393 µM.
`COc1cccc(CC2CCN(c3ccc(-c4cn[nH]c4)c(OC)c3)C2=O)c1` (centres unmarked) [Example 40, 3-[(3-Methoxyphenyl)methyl]-1-[3-methoxy-4-(1H-pyrazol-4-yl)phenyl]pyrrolidin-2-one] gave an EC (150% of control) of 0.334 µM.
`COc1cc(N2CCC(c3ccccc3OC)C2=O)ccc1-c1cnco1` (centres unmarked) [Example 41, 1-[3-Methoxy-4-(1,3-oxazol-5-yl)phenyl]-3-(2-methoxyphenyl)pyrrolidin-2-one] showed an EC (150% of control) of 2.91 µM.
In the case of `COc1ccccc1CN1CCN(c2ccc(-c3cn[nH]c3)c(OC)c2)C1=O` [Example 42, 1-[(2-Methoxyphenyl)methyl]-3-[3-methoxy-4-(1H-pyrazol-4-yl)phenyl]imidazolidin-2-one], the EC (150% of control) was 0.308 µM.
`COc1cc(N2CCN(CCc3ccccc3)C2=O)ccc1-c1cn[nH]c1` [Example 43, 1-[3-Methoxy-4-(1H-pyrazol-4-yl)phenyl]-3-(2-phenylethyl)imidazolidin-2-one] was tested, and the EC (150% of control) was 0.309 µM.
`COc1ccccc1CCN1CCN(c2ccc(-c3cn[nH]c3)c(OC)c2)C1=O` [Example 44, 1-[2-(2-Methoxyphenyl)ethyl]-3-[3-methoxy-4-(1H-pyrazol-4-yl)phenyl]imidazolidin-2-one] was tested, and the EC (150% of control) was 1.98 µM.
With `COc1cc(N2CCN(CCc3ccccc3Cl)C2=O)ccc1-c1cn[nH]c1` [Example 45, 1-[2-(2-Chlorophenyl)ethyl]-3-[3-methoxy-4-(1H-pyrazol-4-yl)phenyl]imidazolidin-2-one] the EC (150% of control) was 0.136 µM.
`COc1cccc(CN2CCN(c3ccc(-c4cn[nH]c4)cc3Cl)C2=O)c1` [Example 46, 1-[2-Chloro-4-(1H-pyrazol-4-yl)phenyl]-3-[(3-methoxyphenyl)methyl]imidazolidin-2-one] was tested, and the EC (150% of control) was 1.83 µM.
In the case of `COc1cc(N2CCN(Cc3ccc(F)cc3)C2=O)ccc1-c1cn[nH]c1` [Example 47, 1-[(4-Fluorophenyl)methyl]-3-[3-methoxy-4-(1H-pyrazol-4-yl)phenyl]imidazolidin-2-one], the EC (150% of control) was 0.768 µM.
`COc1cc(N2CCN(Cc3cccnc3)C2=O)ccc1-c1cn[nH]c1` [Example 48, 1-[3-Methoxy-4-(1H-pyrazol-4-yl)phenyl]-3-(3-pyridylmethyl)imidazolidin-2-one] gave an EC (150% of control) of 0.119 µM.
For `COc1cc(N2CCN(CCc3cccc(Cl)c3)C2=O)ccc1-c1cn[nH]c1` [Example 49, 1-[2-(3-Chlorophenyl)ethyl]-3-[3-methoxy-4-(1H-pyrazol-4-yl)phenyl]imidazolidin-2-one], the EC (150% of control) was 1.73 µM.
Work on `COc1cc(N2CCN(CCc3ccc(Cl)cc3)C2=O)ccc1-c1cn[nH]c1` [Example 50, 1-[2-(4-Chlorophenyl)ethyl]-3-[3-methoxy-4-(1H-pyrazol-4-yl)phenyl]imidazolidin-2-one] yielded an EC (150% of control) of 2.01 µM.
For `CCC(c1ccccc1)N1CCN(c2ccc(-c3cn[nH]c3)c(OC)c2)C1=O` (centres unmarked) [Example 51, 1-[3-Methoxy-4-(1H-pyrazol-4-yl)phenyl]-3-(1-phenylpropyl)imidazolidin-2-one], the EC (150% of control) was 0.594 µM.
`COc1cccc(C2CCN(c3ccc(-c4cnco4)cc3)C2=O)c1` (centres unmarked) [Example 52, 3-(3-Methoxyphenyl)-1-[4-(1,3-oxazol-5-yl)phenyl]pyrrolidin-2-one] gave an EC (150% of control) of 0.517 µM.
Work on `O=C1C(c2ccccc2)CCN1c1ccc(-c2cnco2)cc1` (centres unmarked) [Example 53, 1-[4-(1,3-Oxazol-5-yl)phenyl]-3-phenylpyrrolidin-2-one] yielded an EC (150% of control) of 2.21 µM.

Source: US9714239B2, “N-phenyl-lactam derivatives capable of stimulating neurogenesis and their use in the treatment of neurological disorders” (Hoffmann-La Roche Inc., priority 2014, dated 2017)
